In ChEMBL document CHEMBL1121450, “Synthesis and antineoplastic activity of phenyl-substituted benzenesulfonylhydrazones of 2-pyridinecarboxyaldehyde 1-oxide” (1980):

What was measured:
Type in all cases: functional
Mus musculus [1] = species: Mus musculus; experiment: At the 50 day survivors of mice bearing the P388 Leukemia at 100 mg / kg (Mice that survived more than 50 days)
Mus musculus [2] = species: Mus musculus; experiment: Average survival time (treated / control) x100 was calculated in mice bearing the P388 Leukemia at 100 mg / kg (Mice that survived more than 50 days)
Mus musculus [3] = species: Mus musculus; experiment: Average change in body weight from onset to termination of drug therapy in mice bearing the L1210 Leukemia at 120 mg / kg
Mus musculus [4] = species: Mus musculus; experiment: Average survival time (treated / control) x100 was calculated in mice bearing the L1210 Leukemia at 120 mg / kg (Mice that survived more than 50 days)
Mus musculus [5] = species: Mus musculus; experiment: The average survival time(days) of mice bearing the P388 Leukemia at 100 mg / kg
Mus musculus [6] = species: Mus musculus; experiment: Average change in body weight from onset to termination of drug therapy in mice bearing the P388 Leukemia at 100 mg / kg
Mus musculus [7] = species: Mus musculus; experiment: At the 50 day survivors of mice bearing the L1210 Leukemia at 120 mg / kg; parameters: unit not given here
Mus musculus [8] = species: Mus musculus; experiment: The average survival time (days) of mice bearing the L1210 Leukemia at 120 mg / kg (Mice that survived more than 50 days)
Mus musculus [9] = species: Mus musculus; experiment: At the 50 day survivors of mice bearing the L1210 Leukemia at 80 mg / kg
Mus musculus [10] = species: Mus musculus; experiment: Average change in body weight from onset to termination of drug therapy in mice bearing the L1210 Leukemia at 80 mg / kg
Mus musculus [11] = species: Mus musculus; experiment: At the 50 day survivors of mice bearing the P388 Leukemia at 100 mg / kg; parameters: unit not given here
Mus musculus [12] = species: Mus musculus; experiment: Average survival time (treated / control) x100 was calculated in mice bearing the L1210 Leukemia at 80 mg / kg
Mus musculus [13] = species: Mus musculus; experiment: The average survival time (days) of mice bearing the L1210 Leukemia at 80 mg / kg
Mus musculus [14] = species: Mus musculus; experiment: Average survival time (treated / control) x100 was calculated in mice bearing the P388 Leukemia at 100 mg / kg
Mus musculus [15] = species: Mus musculus; experiment: At the 50 day survivors of mice bearing the L1210 Leukemia at 100 mg / kg; parameters: unit not given here
Mus musculus [16] = species: Mus musculus; experiment: The average survival time (days) of mice bearing the L1210 Leukemia at 100 mg / kg
Mus musculus [17] = species: Mus musculus; experiment: Average change in body weight from onset to termination of drug therapy in mice bearing the L1210 Leukemia at 100 mg / kg
Mus musculus [18] = species: Mus musculus; experiment: Average survival time (treated / control) x100 was calculated in mice bearing the L1210 Leukemia at 100 mg / kg
Mus musculus [19] = species: Mus musculus; experiment: The average survival time(days) of mice bearing the P388 Leukemia at 100 mg / kg (Mice that survived more than 50 days)
Mus musculus [20] = species: Mus musculus; experiment: Average change in body weight from onset to termination of drug therapy in mice bearing the P388 Leukemia at 80 mg / kg
Mus musculus [21] = species: Mus musculus; experiment: At the 50 day survivors of mice bearing the P388 Leukemia at 80 mg / kg
Mus musculus [22] = species: Mus musculus; experiment: The average survival time (days) of mice bearing the L1210 Leukemia at 120 mg / kg
Mus musculus [23] = species: Mus musculus; experiment: Average survival time (treated / control) x100 was calculated in mice bearing the P388 Leukemia at 80 mg / kg
Mus musculus [24] = species: Mus musculus; experiment: Average survival time (treated / control) x100 was calculated in mice bearing the L1210 Leukemia at 120 mg / kg
Mus musculus [25] = species: Mus musculus; experiment: The average survival time(days) of mice bearing the P388 Leukemia at 80 mg / kg
Mus musculus [26] = species: Mus musculus; experiment: Average change in body weight from onset to termination of drug therapy in mice bearing the L1210 Leukemia at 60 mg / kg
Mus musculus [27] = species: Mus musculus; experiment: At the 50 day survivors of mice bearing the L1210 Leukemia at 60 mg / kg
Mus musculus [28] = species: Mus musculus; experiment: Average survival time (treated / control) x100 was calculated in mice bearing the L1210 Leukemia at 60 mg / kg
Mus musculus [29] = species: Mus musculus; experiment: The average survival time (days) of mice bearing the L1210 Leukemia at 60 mg / kg
Mus musculus [30] = species: Mus musculus; experiment: The average survival time(days) of mice bearing the P388 Leukemia at 80 mg / kg (Mice that survived more than 50 days)
Mus musculus [31] = species: Mus musculus; experiment: Average survival time (treated / control) x100 was calculated in mice bearing the P388 Leukemia at 80 mg / kg (Mice that survived more than 50 days)
Mus musculus [32] = species: Mus musculus; experiment: At the 50 day survivors of mice bearing the P388 Leukemia at 120 mg / kg
Mus musculus [33] = species: Mus musculus; experiment: Average survival time (treated / control) x100 was calculated in mice bearing the P388 Leukemia at 120 mg / kg (Mice that survived more than 50 days)
Mus musculus [34] = species: Mus musculus; experiment: The average survival time (days) of mice bearing the L1210 Leukemia at 100 mg / kg (Mice that survived more than 50 days)
Mus musculus [35] = species: Mus musculus; experiment: Average change in body weight from onset to termination of drug therapy in mice bearing the P388 Leukemia at 120 mg / kg
Mus musculus [36] = species: Mus musculus; experiment: Average survival time (treated / control) x100 was calculated in mice bearing the L1210 Leukemia at 100 mg / kg (Mice that survived more than 50 days)
Mus musculus [37] = species: Mus musculus; experiment: The average survival time(days) of mice bearing the P388 Leukemia at 120 mg / kg (Mice that survived more than 50 days)
Mus musculus [38] = species: Mus musculus; experiment: Average survival time (treated / control) x100 was calculated in mice bearing the L1210 Leukemia at 80 mg / kg (Mice that survived more than 50 days)
Mus musculus [39] = species: Mus musculus; experiment: The average survival time (days) of mice bearing the L1210 Leukemia at 80 mg / kg (Mice that survived more than 50 days)

Row | Compound | T/C (Mus musculus [2]) | Average change in body weight (Mus musculus [3]) | Average survival (Mus musculus [5]) | Average change in body weight (Mus musculus [6]) | Survivors (Mus musculus [7]) | Survivors (Mus musculus [11]) | T/C (Mus musculus [14]) | Survivors (Mus musculus [15]) | Average survival (Mus musculus [16]) | Average change in body weight (Mus musculus [17]) | T/C (Mus musculus [18]) | further results
1 | Cc1cc(C)c(S(=O)(=O)N/N=C/c2cccc[n+]2[O-])c(C)c1 | 180% | -1% | 17 days | -9.3% | 40 | – | – | – | – | – | – | Survivors (Mus musculus [1]): 40; T/C (Mus musculus [4]): 126%; Average survival (Mus musculus [8]): 11.3 days
2 | O=C(O)c1cc(S(=O)(=O)N/N=C/c2cccc[n+]2[O-])ccc1O | – | – | 13.8 days | -9.8% | – | 0 | 147% | – | – | – | – | Survivors (Mus musculus [9]): 0; Average change in body weight (Mus musculus [10]): 0%; T/C (Mus musculus [12]): 156%; Average survival (Mus musculus [13]): 14 days
3 | CN(C)c1ccc(S(=O)(=O)N/N=C/c2cccc[n+]2[O-])cc1 | – | – | 16.4 days | -4.4% | – | 0 | 174% | 0 | 16.8 days | -3.2% | 187% | –
4 | Cc1ccc(S(=O)(=O)N/N=C/c2cccc[n+]2[O-])cc1C(=O)O | 99% | – | – | -5.9% | – | 40 | – | 0 | 11.8 days | -5% | 131% | Average survival (Mus musculus [19]): 9.3 days
5 | CC(=O)Nc1ccc(S(=O)(=O)N/N=C/c2cccc[n+]2[O-])cc1 | – | 0% | – | – | 0 | – | – | – | – | – | – | Average change in body weight (Mus musculus [20]): -4.4%; Survivors (Mus musculus [21]): 0; Average survival (Mus musculus [22]): 15.2 days; T/C (Mus musculus [23]): 157%; T/C (Mus musculus [24]): 169%; Average survival (Mus musculus [25]): 14.8 days
6 | O=S(=O)(N/N=C/c1cccc[n+]1[O-])c1ccc(O)cc1 | – | – | 16 days | -15.4% | – | 0 | 170% | 0 | 12.2 days | -0.8% | 136% | –
7 | O=C(O)c1ccc(S(=O)(=O)N/N=C/c2cccc[n+]2[O-])cc1 | – | – | 13.8 days | -4.1% | – | 0 | 147% | – | – | – | – | Average change in body weight (Mus musculus [26]): 3.4%; Survivors (Mus musculus [27]): 0; T/C (Mus musculus [28]): 120%; Average survival (Mus musculus [29]): 10.8 days
8 | COc1ccc(C(=O)O)cc1S(=O)(=O)N/N=C/c1cccc[n+]1[O-] | – | – | – | – | – | – | – | 0 | 11.6 days | 8.1% | 129% | Average change in body weight (Mus musculus [20]): -3.1%; Average survival (Mus musculus [30]): 15 days; T/C (Mus musculus [31]): 160%; Survivors (Mus musculus [21]): 20
9 | O=C(O)c1cccc(S(=O)(=O)N/N=C/c2cccc[n+]2[O-])c1 | – | -2.4% | – | – | 0 | – | – | – | – | – | – | Average change in body weight (Mus musculus [20]): -6.5%; Survivors (Mus musculus [21]): 0; Average survival (Mus musculus [22]): 12.4 days; T/C (Mus musculus [23]): 147%; T/C (Mus musculus [24]): 138%; Average survival (Mus musculus [25]): 13.8 days
10 | COc1ccc(S(=O)(=O)N/N=C/c2cccc[n+]2[O-])cc1OC | – | – | – | – | – | – | – | 80 | – | -8.7% | – | Survivors (Mus musculus [32]): 60; T/C (Mus musculus [33]): 122%; Average survival (Mus musculus [34]): 19 days; Average change in body weight (Mus musculus [35]): -18.8%; T/C (Mus musculus [36]): 210%; Average survival (Mus musculus [37]): 11.5 days
11 | O=C(O)Cc1ccc(S(=O)(=O)N/N=C/c2cccc[n+]2[O-])cc1 | – | 7.3% | 13.6 days | -5.2% | 0 | 0 | 145% | – | – | – | – | Average survival (Mus musculus [22]): 10.4 days; T/C (Mus musculus [24]): 116%
12 | COc1ccc(S(=O)(=O)N/N=C/c2cccc[n+]2[O-])c(OC)c1 | 226% | – | – | -10.3% | – | 20 | – | – | – | – | – | Survivors (Mus musculus [9]): 20; Average change in body weight (Mus musculus [10]): -2.5%; Average survival (Mus musculus [19]): 21.2 days; T/C (Mus musculus [38]): 130%; Average survival (Mus musculus [39]): 11.7 days
13 | Cc1ccc(C(=O)O)cc1S(=O)(=O)N/N=C/c1cccc[n+]1[O-] | 180% | – | – | 0% | – | 20 | – | 0 | 12 days | 4.1% | 133% | Average survival (Mus musculus [19]): 17 days
